Measurements published in patent US20260158009A1 (GENZYME CORPORATION, priority 2023, published 2026).

Key:
[1] = molecular target: T1, hRIPK1 (aa 1-375) fusion protein (Homo sapiens, UniProt Q13546); assay: ADP-Glo kinase assay: catalytic activity of RIPK1 (autophosphorylation, conversion of ATP to ADP); format: biochemical
T1 construct: hRIPK1 (aa 1-375) fusion protein
T1 sequence (Q13546 1-375): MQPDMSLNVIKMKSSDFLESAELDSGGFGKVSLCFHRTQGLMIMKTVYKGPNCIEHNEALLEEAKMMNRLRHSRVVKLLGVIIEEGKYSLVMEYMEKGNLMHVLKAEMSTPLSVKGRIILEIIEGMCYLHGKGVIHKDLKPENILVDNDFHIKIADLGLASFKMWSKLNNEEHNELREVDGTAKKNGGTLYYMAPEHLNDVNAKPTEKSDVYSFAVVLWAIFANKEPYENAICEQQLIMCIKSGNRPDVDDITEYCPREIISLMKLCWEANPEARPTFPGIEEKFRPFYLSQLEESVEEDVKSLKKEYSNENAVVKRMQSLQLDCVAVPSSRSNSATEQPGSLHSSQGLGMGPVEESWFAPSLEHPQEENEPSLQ
How it was run: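 hRIPK1 (aa 1-375) fusion protein (3.6 μg/ml final) was preincubated 30 min at rt with compound (33300-1.69 nM, 1% DMSO), then 50 μM ATP was added for 240 min at rt. ADP from autophosphorylation was measured by ADP-Glo luminescence and curves fitted by nonlinear regression.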

U937 cells = assay: Cellular assay in U937 cells: activity of RIPK1 inhibitors on TNFα/zVAD.fmk-induced cell death (necroptosis), CellTiter 96 AQueous (MTS) readout; format: cell-based; details: Homo sapiens, U-937
How it was run: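 Necroptosis was measured by viable-cell MTS reduction (4 h, absorbance 490 nm) after overnight (18–24 h) 37° C culture. Cell suspensions of U937 cells carried TNFα (100 ng/ml) plus zVAD.fmk (50 μM) before compound was added. A 10-point curve (10 μM–0.26 nM or 1 μM–0.07 nM) was run in duplicate, normalised to the control lacking TNFα/zVAD.fmk.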

| Compound | IC50 [1] | IC50 (U937 cells) |
| --- | --- | --- |
| N#Cc1cc(F)cc([C@@H]2CCON2C(=O)[C@H]2CC[C@H](Cc3cc(F)cc(CCO)c3)CC2)c1 [compound 282, trans-3-fluoro-5-[(3S)-2-[4-[[3-fluoro-5-(2-hydroxyethyl)phenyl]methyl]cyclohexanecarbonyl]isoxazolidin-3-yl]benzonitrile] | 18 nM | 10 nM |
| O=C([C@H]1CC[C@H](Cc2cc(F)cc(CCO)c2)CC1)N1OCC[C@H]1c1cc(F)cc(F)c1 [compound 283, trans-[(3S)-3-(3,5-difluorophenyl)isoxazolidin-2-yl]-[4-[[3-fluoro-5-(2-hydroxyethyl)phenyl]methyl]cyclohexyl]methanone] | 16 nM | 13 nM |
| Cc1nc2c(F)cc(C[C@H]3CC[C@H](C(=O)N4OCC[C@H]4c4cc(F)cc(C#N)c4)CC3)cn2n1 [compound 284, trans-3-fluoro-5-[(3S)-2-[4-[(8-fluoro-2-methyl-[1,2,4]triazolo[1,5-a]pyridin-6-yl)methyl]cyclohexanecarbonyl]isoxazolidin-3-yl]benzonitrile] | 17 nM | 34 nM |
| Cc1nc2c(F)cc(C[C@H]3CC[C@H](C(=O)N4OCC[C@H]4c4cc(F)cc(F)c4)CC3)cn2n1 [compound 285, trans-[(3S)-3-(3,5-difluorophenyl)isoxazolidin-2-yl]-[4-[(8-fluoro-2-methyl-[1,2,4]triazolo[1,5-a]pyridin-6-yl)methyl]cyclohexyl]methanone] | 11 nM | 10 nM |
| Cc1ncc(C[C@H]2CC[C@H](C(=O)N3OCC[C@H]3c3cc(F)c(C)c(C#N)c3)CC2)cc1C#N [compound 286, trans-5-[[4-[(3S)-3-(3-cyano-5-fluoro-4-methyl-phenyl)isoxazolidine-2-carbonyl]cyclohexyl]methyl]-2-methyl-pyridine-3-carbonitrile] | 1 nM | 1 nM |
| Cc1c(F)cc([C@@H]2CCON2C(=O)[C@H]2CC[C@H](Cc3cncc(C#N)c3C)CC2)cc1C#N [compound 287, trans-5-[[4-[(3S)-3-(3-cyano-5-fluoro-4-methyl-phenyl)isoxazolidine-2-carbonyl]cyclohexyl]methyl]-4-methyl-pyridine-3-carbonitrile] | 2 nM | 1 nM |
| Cc1cn2nc(C[C@H]3CC[C@H](C(=O)N4OCC[C@H]4c4cc(F)cc(C#N)c4)CC3)c(C)cc2n1 [compound 292, trans-3-[(3S)-2-[4-[(2,7-dimethylimidazo[1,2-b]pyridazin-6-yl)methyl]cyclohexanecarbonyl]isoxazolidin-3-yl]-5-fluoro-benzonitrile] | 14 nM | 4 nM |
| Cn1ncc2ncc(C[C@H]3CC[C@H](C(=O)N4OCC[C@H]4c4cc(F)cc(C#N)c4)CC3)cc21 [compound 296, trans-3-fluoro-5-[(3S)-2-[4-[(1-methylpyrazolo[4,3-b]pyridin-6-yl)methyl]cyclohexanecarbonyl]isoxazolidin-3-yl]benzonitrile] | 5 nM | 2 nM |
| Cc1ccc([C@@H]2CCON2C(=O)[C@H]2CC[C@H](Cn3ncc4cc(C#N)c(F)cc43)CC2)cn1 [compound 298, 6-fluoro-1-[[trans-4-[(3S)-3-(6-methyl-3-pyridyl)isoxazolidine-2-carbonyl]cyclohexyl]methyl]indazole-5-carbonitrile] | 20 nM | 6 nM |
| Cc1cc(C[C@H]2CC[C@H](C(=O)N3OCC[C@H]3c3cc(F)cc(C#N)c3)CC2)cn2c(C)nnc12 [compound 300, trans-3-[(3S)-2-[4-[(3,8-dimethyl-[1,2,4]triazolo[4,3-a]pyridin-6-yl)methyl]cyclohexanecarbonyl]-1,2-oxazolidin-3-yl]-5-fluorobenzonitrile] | 19 nM | 13 nM |
| Cc1cc(C[C@H]2CC[C@H](C(=O)N3OCC[C@H]3c3cc(F)cc(C#N)c3)CC2)cnn1 [compound 302, trans-3-fluoro-5-[(3S)-2-[4-[(6-methylpyridazin-4-yl)methyl]cyclohexanecarbonyl]isoxazolidin-3-yl]benzonitrile] | 31 nM | 37 nM |
| Cc1ccc(C[C@H]2CC[C@H](C(=O)N3OCC[C@H]3c3cc(F)cc(C#N)c3)CC2)nn1 [compound 303, trans-3-fluoro-5-[(3S)-2-[4-[(6-methylpyridazin-3-yl)methyl]cyclohexanecarbonyl]isoxazolidin-3-yl]benzonitrile] | 7 nM | 16 nM |
| Cc1ccc(C[C@H]2CC[C@H](C(=O)N3OCC[C@H]3c3cc(F)cc(F)c3)CC2)nn1 [compound 304, trans-[(3S)-3-(3,5-difluorophenyl)isoxazolidin-2-yl]-[4-[(6-methylpyridazin-3-yl)methyl]cyclohexyl]methanone] | 23 nM | 33 nM |
| Cc1cc(-c2cncc(C[C@H]3CC[C@H](C(=O)N4OCC[C@H]4c4cnccn4)CC3)c2)n(C)n1 [compound 305, trans-[4-[[5-(2,5-dimethylpyrazol-3-yl)-3-pyridyl]methyl]cyclohexyl]-[(3S)-3-pyrazin-2-ylisoxazolidin-2-yl]methanone] | 29 nM | 43 nM |

Further lines, with some results ahead:

| IC50 [1] | Compound | IC50 (U937 cells) |
| --- | --- | --- |
| 19 nM | Cc1cn2cc(C[C@H]3CC[C@H](C(=O)N4OCC[C@H]4c4cc(F)cc(F)c4)CC3)cc(F)c2n1 [compound 281, trans-[(3S)-3-(3,5-difluorophenyl)isoxazolidin-2-yl]-[4-[(8-fluoro-2-methyl-imidazo[1,2-a]pyridin-6-yl)methyl]cyclohexyl]methanone] | 5 nM |
| 17 nM | Cc1nc2c(C)cc(C[C@H]3CC[C@H](C(=O)N4OCC[C@H]4c4cc(F)cc(C#N)c4)CC3)cn2n1 [compound 288, trans-3-[(3S)-2-[4-[(2,8-dimethyl-[1,2,4]triazolo[1,5-a]pyridin-6-yl)methyl]cyclohexanecarbonyl]isoxazolidin-3-yl]-5-fluoro-benzonitrile] | 4 nM |
| 36 nM | Cc1nc2ccc(C[C@H]3CC[C@H](C(=O)N4OCC[C@H]4c4cc(C#N)ccc4F)CC3)cn2n1 [compound 289, trans-4-fluoro-3-[(3S)-2-[4-[(2-methyl-[1,2,4]triazolo[1,5-a]pyridin-6-yl)methyl]cyclohexanecarbonyl]isoxazolidin-3-yl]benzonitrile] | 733 nM |
| 11 nM | Cc1cn2nc(C[C@H]3CC[C@H](C(=O)N4OCC[C@H]4c4cc(F)cc(C#N)c4)CC3)cc(C)c2n1 [compound 290, trans-3-[(3S)-2-[4-[(2,8-dimethylimidazo[1,2-b]pyridazin-6-yl)methyl]cyclohexanecarbonyl]isoxazolidin-3-yl]-5-fluoro-benzonitrile] | 4 nM |
| 12 nM | Cc1cn2nc(C[C@H]3CC[C@H](C(=O)N4OCC[C@H]4c4cc(F)cc(F)c4)CC3)cc(C)c2n1 [compound 291, trans-[(3S)-3-(3,5-difluorophenyl)isoxazolidin-2-yl]-[4-[(2,8-dimethylimidazo[1,2-b]pyridazin-6-yl)methyl]cyclohexyl]methanone] | 1 nM |
| 14 nM | Cc1cn2nc(C[C@H]3CC[C@H](C(=O)N4OCC[C@H]4c4cc(F)cc(F)c4)CC3)c(C)cc2n1 [compound 293, trans-[(3S)-3-(3,5-difluorophenyl)isoxazolidin-2-yl]-[4-[(2,7-dimethylimidazo[1,2-b]pyridazin-6-yl)methyl]cyclohexyl]methanone] | 3 nM |
| 4 nM | Cn1ncc2ccc(C[C@H]3CC[C@H](C(=O)N4OCC[C@H]4c4cc(F)cc(C#N)c4)CC3)cc21 [compound 294, trans-3-fluoro-5-[(3S)-2-[4-[(1-methylindazol-6-yl)methyl]cyclohexanecarbonyl]isoxazolidin-3-yl]benzonitrile] | 1 nM |
| 6 nM | Cn1ncc2ccc(C[C@H]3CC[C@H](C(=O)N4OCC[C@H]4c4cc(F)cc(F)c4)CC3)cc21 [compound 295, trans-[(3S)-3-(3,5-difluorophenyl)isoxazolidin-2-yl]-[4-[(1-methylindazol-6-yl)methyl]cyclohexyl]methanone] | 1 nM |
| 14 nM | Cn1ncc2ncc(C[C@H]3CC[C@H](C(=O)N4OCC[C@H]4c4cc(F)cc(F)c4)CC3)cc21 [compound 297, trans-[(3S)-3-(3,5-difluorophenyl)isoxazolidin-2-yl]-[4-[(1-methylpyrazolo[4,3-b]pyridin-6-yl)methyl]cyclohexyl]methanone] | 7 nM |
| 14 nM | Cc1cncc([C@@H]2CCON2C(=O)[C@H]2CC[C@H](Cc3ccc(F)c(C(N)=O)c3)CC2)n1 [compound 299, trans-2-fluoro-5-[[4-[(3S)-3-(6-methylpyrazin-2-yl)isoxazolidine-2-carbonyl]cyclohexyl]methyl]benzamide] | 19 nM |
| 33 nM | Cc1cc(C[C@H]2CC[C@H](C(=O)N3OCC[C@H]3c3cnccn3)CC2)cn2c(C)nnc12 [compound 301, trans-[4-[(3,8-dimethyl-[1,2,4]triazolo[4,3-a]pyridin-6-yl)methyl]cyclohexyl]-[(3S)-3-pyrazin-2-yl-1,2-oxazolidin-2-yl]methanone] | 34 nM |
